From ChEMBL document CHEMBL3091347, “Comparison of Multiple Linear Regressions and Neural Networks based QSAR models for the design of new antitubercular compounds” (Eur J Med Chem, 2013)
Values after ≈ are worked out from the molar mass of the structure shown.

Key:
[1] = tested on: Mycobacterium tuberculosis; assay: Antitubercular activity against Mycobacterium tuberculosis H37Rv; type: functional; settings: for MIC: Mycobacterium tuberculosis, H37Rv
[2] = Lipophilicity, log P of the compound; settings: octanol/water, logP

| Compound | log(1/MIC) [1] | MIC [1] [µg/mL] | logP [2] |
| --- | --- | --- | --- |
| C/C(=N\NC(=O)c1ccncc1)c1cccc(CN2CCN(c3ccc(F)cc3)CC2)c1O | 0.3963 | 0.4 (≈ 0.894 µM) | 3.68 |
| C/C(=N\NC(=O)c1ccncc1)c1cccc(CN(C)C)c1O | 0.09006 | 0.81 (≈ 2.59 µM) | 1.19 |
| CCN(CC)Cc1cccc(/C(C)=N/NC(=O)c2ccncc2)c1O | 0.09061 | 0.81 (≈ 2.38 µM) | 2.09 |
| CCCCN(CCCC)Cc1cccc(/C(C)=N/NC(=O)c2ccncc2)c1O | -0.2078 | 1.61 (≈ 4.06 µM) | 4.05 |
| C/C(=N\NC(=O)c1ccncc1)c1cccc(CN2CCCC2)c1O | -0.2108 | 1.62 (≈ 4.79 µM) | 1.99 |
| C/C(=N\NC(=O)c1ccncc1)c1cccc(CN2CCOCC2)c1O | 0.09122 | 0.81 (≈ 2.29 µM) | 1.61 |
| C/C(=N\NC(=O)c1ccncc1)c1cccc(CN(c2ccccc2)c2ccccc2)c1O | -0.2064 | 1.61 (≈ 3.69 µM) | 4.12 |
| C/C(=N\NC(=O)c1ccncc1)c1cccc(CN2CCNCC2)c1O | 0.6866 | 0.21 (≈ 0.594 µM) | 1.05 |
| C/C(=N\NC(=O)c1ccncc1)c1cccc(CN(Cc2ccccc2)Cc2ccccc2)c1O | -0.2063 | 1.61 (≈ 3.47 µM) | 4.33 |
| C/C(=N\NC(=O)c1ccncc1)c1cccc(CN2CCN(c3cc4c(cc3F)c(=O)c(C(=O)O)cn4C3CC3)CC2)c1O | 0.09913 | 0.8 (≈ 1.34 µM) | 4.2 |
| CCn1cc(C(=O)O)c(=O)c2cc(F)c(N3CCN(Cc4cccc(/C(C)=N/NC(=O)c5ccncc5)c4O)C(C)C3)c(F)c21 (stereo unspecified) | 0.09873 | 0.8 (≈ 1.29 µM) | 4.81 |
| C/C(=N\NC(=O)c1ccncc1)c1cccc(CN2CCN(c3ccccn3)CC2)c1O | 0.3979 | 0.4 (≈ 0.929 µM) | 2.59 |
| C/C(=N\NC(=O)c1ccncc1)c1cccc(CN2CCN(Cc3ccccc3)CC2)c1O | 0.3951 | 0.4 (≈ 0.902 µM) | 3.83 |
| Cc1cc(C(=O)NN)ccn1 | 0.1045 | 0.79 (≈ 5.23 µM) | -1.67 |
| CCc1cc(C(=O)NN)ccn1 | -0.5423 | 3.49 (≈ 21.1 µM) | -1.14 |
| CCCc1cc(C(=O)NN)ccn1 | -0.9953 | 9.89 (≈ 55.2 µM) | -0.615 |
| COc1cc(C(=O)NN)ccn1 | -1.408 | 25.6 (≈ 153 µM) | -2.03 |
| NNC(=O)c1ccnc(N)c1 | -0.3436 | 2.21 (≈ 14.5 µM) | -2.84 |
| CC(=O)NCc1cc(C(=O)NN)ccn1 | -1.704 | 50.6 (≈ 243 µM) | -3.75 |
| NNC(=O)c1ccnc(I)c1 | -1.825 | 66.8 (≈ 254 µM) | -1.2 |
| NNC(=O)c1ccnc(Cc2ccccc2)c1 | -0.942 | 8.75 (≈ 38.5 µM) | -0.105 |
| C=Cc1cc(C(=O)NN)ccn1 | -0.7567 | 5.71 (≈ 35 µM) | -1.69 |
